According to the supplement of paper PMC10307832:

Tests used:
Assay in all cases: relative viability (nuclei count vs DMSO), 5 days (fraction); higher = more cells survive
VE-821 + Pemetrexed = compound: CS(=O)(=O)c1ccc(-c2cnc(N)c(C(=O)Nc3ccccc3)n2)cc1 [VE-821] + Nc1nc2[nH]cc(CCc3ccc(C(=O)N[C@@H](CCC(=O)O)C(=O)O)cc3)c2c(=O)[nH]1 [Pemetrexed] (partner 0.2 µM)
Method in brief: (§1)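 Cells from lung cancer lines were seeded into 1536-well plates and, one day later, dosed by pin tool. Treatments were either a single drug or a fixed dose of an anchor drug with five library-drug doses (not always all listed) in √10 steps. After 5 days, nuclei were stained in a one-step fixation (final 0.05% Triton X-100, 1% formaldehyde, 1 ug/ml Hoechst) and counted on 4× images, and relative viability is the treated-to-vehicle nuclei ratio, as the median of duplicate plates.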

VE-821 + Vorinostat = compound: CS(=O)(=O)c1ccc(-c2cnc(N)c(C(=O)Nc3ccccc3)n2)cc1 [VE-821] + O=C(CCCCCCC(=O)Nc1ccccc1)NO [Vorinostat] (partner 1 µM)
Method in brief: as §1

Ruxolitinib + Tozasertib = compound: N#CC[C@H](C1CCCC1)n1cc(-c2ncnc3[nH]ccc23)cn1 [Ruxolitinib] + Cc1cc(Nc2cc(N3CCN(C)CC3)nc(Sc3ccc(NC(=O)C4CC4)cc3)n2)n[nH]1 [Tozasertib] (partner 0.1 µM)
Method in brief: as §1

Ruxolitinib + Olaparib = compound: N#CC[C@H](C1CCCC1)n1cc(-c2ncnc3[nH]ccc23)cn1 [Ruxolitinib] + O=C(c1cc(Cc2n[nH]c(=O)c3ccccc23)ccc1F)N1CCN(C(=O)C2CC2)CC1 [Olaparib] (partner 8 µM)
Method in brief: as §1

## NCI-H358
VE-821 + Pemetrexed; first compound 0.08 µM
  relative viability: 0.177
VE-821 + Pemetrexed; first compound 0.253 µM
  relative viability: 0.199
VE-821 + Pemetrexed; first compound 0.8 µM
  relative viability: 0.177
VE-821 + Pemetrexed; first compound 2.53 µM
  relative viability: 0.166
VE-821 + Pemetrexed; first compound 8 µM
  relative viability: 0.122
VE-821 + Vorinostat; first compound 0.08 µM
  relative viability: 0.737
VE-821 + Vorinostat; first compound 0.253 µM
  relative viability: 0.694
VE-821 + Vorinostat; first compound 0.8 µM
  relative viability: 0.712
VE-821 + Vorinostat; first compound 2.53 µM
  relative viability: 0.608
VE-821 + Vorinostat; first compound 8 µM
  relative viability: 0.329
Ruxolitinib + Tozasertib; first compound 0.08 µM
  relative viability: 0.102
Ruxolitinib + Tozasertib; first compound 0.253 µM
  relative viability: 0.0986
Ruxolitinib + Tozasertib; first compound 0.8 µM
  relative viability: 0.102
Ruxolitinib + Tozasertib; first compound 2.53 µM
  relative viability: 0.102
Ruxolitinib + Tozasertib; first compound 8 µM
  relative viability: 0.0752
Ruxolitinib + Olaparib; first compound 0.08 µM
  relative viability: 0.494
Ruxolitinib + Olaparib; first compound 0.253 µM
  relative viability: 0.544
Ruxolitinib + Olaparib; first compound 0.8 µM
  relative viability: 0.534
Ruxolitinib + Olaparib; first compound 2.53 µM
  relative viability: 0.495
Ruxolitinib + Olaparib; first compound 8 µM
  relative viability: 0.442

## NCI-H2342
VE-821 + Pemetrexed; first compound 0.08 µM
  relative viability: 0.792
VE-821 + Pemetrexed; first compound 0.253 µM
  relative viability: 0.777
VE-821 + Pemetrexed; first compound 0.8 µM
  relative viability: 0.804
VE-821 + Pemetrexed; first compound 2.53 µM
  relative viability: 0.736
VE-821 + Pemetrexed; first compound 8 µM
  relative viability: 0.667
VE-821 + Vorinostat; first compound 0.08 µM
  relative viability: 0.702
VE-821 + Vorinostat; first compound 0.253 µM
  relative viability: 0.673
VE-821 + Vorinostat; first compound 0.8 µM
  relative viability: 0.723
VE-821 + Vorinostat; first compound 2.53 µM
  relative viability: 0.774
VE-821 + Vorinostat; first compound 8 µM
  relative viability: 0.841
Ruxolitinib + Tozasertib; first compound 0.08 µM
  relative viability: 0.529
Ruxolitinib + Tozasertib; first compound 0.253 µM
  relative viability: 0.556
Ruxolitinib + Tozasertib; first compound 0.8 µM
  relative viability: 0.486
Ruxolitinib + Tozasertib; first compound 2.53 µM
  relative viability: 0.479
Ruxolitinib + Tozasertib; first compound 8 µM
  relative viability: 0.532
Ruxolitinib + Olaparib; first compound 0.08 µM
  relative viability: 0.46
Ruxolitinib + Olaparib; first compound 0.253 µM
  relative viability: 0.533
Ruxolitinib + Olaparib; first compound 0.8 µM
  relative viability: 0.413
Ruxolitinib + Olaparib; first compound 2.53 µM
  relative viability: 0.498
Ruxolitinib + Olaparib; first compound 8 µM
  relative viability: 0.398

## LK-2
VE-821 + Pemetrexed; first compound 0.08 µM
  relative viability: 0.357
VE-821 + Pemetrexed; first compound 0.253 µM
  relative viability: 0.295
VE-821 + Pemetrexed; first compound 0.8 µM
  relative viability: 0.299
VE-821 + Pemetrexed; first compound 2.53 µM
  relative viability: 0.267
VE-821 + Pemetrexed; first compound 8 µM
  relative viability: 0.262
VE-821 + Vorinostat; first compound 0.08 µM
  relative viability: 0.335
VE-821 + Vorinostat; first compound 0.253 µM
  relative viability: 0.253
VE-821 + Vorinostat; first compound 0.8 µM
  relative viability: 0.416
VE-821 + Vorinostat; first compound 2.53 µM
  relative viability: 0.408
VE-821 + Vorinostat; first compound 8 µM
  relative viability: 0.397
Ruxolitinib + Tozasertib; first compound 0.08 µM
  relative viability: 0.162
Ruxolitinib + Tozasertib; first compound 0.253 µM
  relative viability: 0.199
Ruxolitinib + Tozasertib; first compound 0.8 µM
  relative viability: 0.168
Ruxolitinib + Tozasertib; first compound 2.53 µM
  relative viability: 0.166
Ruxolitinib + Tozasertib; first compound 8 µM
  relative viability: 0.171
Ruxolitinib + Olaparib; first compound 0.08 µM
  relative viability: 0.553
Ruxolitinib + Olaparib; first compound 0.253 µM
  relative viability: 0.701
Ruxolitinib + Olaparib; first compound 0.8 µM
  relative viability: 0.893
Ruxolitinib + Olaparib; first compound 2.53 µM
  relative viability: 0.724
Ruxolitinib + Olaparib; first compound 8 µM
  relative viability: 0.52

## NCI-H1993
VE-821 + Pemetrexed; first compound 0.08 µM
  relative viability: 0.6
VE-821 + Pemetrexed; first compound 0.253 µM
  relative viability: 0.596
VE-821 + Pemetrexed; first compound 0.8 µM
  relative viability: 0.35
VE-821 + Pemetrexed; first compound 2.53 µM
  relative viability: 0.638
VE-821 + Pemetrexed; first compound 8 µM
  relative viability: 0.601
VE-821 + Vorinostat; first compound 0.08 µM
  relative viability: 0.759
VE-821 + Vorinostat; first compound 0.253 µM
  relative viability: 0.657
VE-821 + Vorinostat; first compound 0.8 µM
  relative viability: 0.966
VE-821 + Vorinostat; first compound 2.53 µM
  relative viability: 0.762
VE-821 + Vorinostat; first compound 8 µM
  relative viability: 0.548
Ruxolitinib + Tozasertib; first compound 0.08 µM
  relative viability: 0.585
Ruxolitinib + Tozasertib; first compound 0.253 µM
  relative viability: 0.618
Ruxolitinib + Tozasertib; first compound 0.8 µM
  relative viability: 0.643
Ruxolitinib + Tozasertib; first compound 2.53 µM
  relative viability: 0.631
Ruxolitinib + Tozasertib; first compound 8 µM
  relative viability: 0.551
Ruxolitinib + Olaparib; first compound 0.08 µM
  relative viability: 0.879
Ruxolitinib + Olaparib; first compound 0.253 µM
  relative viability: 0.953
Ruxolitinib + Olaparib; first compound 0.8 µM
  relative viability: 1.42
Ruxolitinib + Olaparib; first compound 2.53 µM
  relative viability: 1.47
Ruxolitinib + Olaparib; first compound 8 µM
  relative viability: 1.02

## A-427
VE-821 + Pemetrexed; first compound 0.08 µM
  relative viability: 0.997
VE-821 + Pemetrexed; first compound 0.253 µM
  relative viability: 0.949
VE-821 + Pemetrexed; first compound 0.8 µM
  relative viability: 0.947
VE-821 + Pemetrexed; first compound 2.53 µM
  relative viability: 0.998
VE-821 + Pemetrexed; first compound 8 µM
  relative viability: 0.474
VE-821 + Vorinostat; first compound 0.08 µM
  relative viability: 0.872
VE-821 + Vorinostat; first compound 0.253 µM
  relative viability: 0.795
VE-821 + Vorinostat; first compound 0.8 µM
  relative viability: 0.83
VE-821 + Vorinostat; first compound 2.53 µM
  relative viability: 0.806
VE-821 + Vorinostat; first compound 8 µM
  relative viability: 0.51
Ruxolitinib + Tozasertib; first compound 0.08 µM
  relative viability: 0.232
Ruxolitinib + Tozasertib; first compound 0.253 µM
  relative viability: 0.201
Ruxolitinib + Tozasertib; first compound 0.8 µM
  relative viability: 0.237
Ruxolitinib + Tozasertib; first compound 2.53 µM
  relative viability: 0.184
Ruxolitinib + Tozasertib; first compound 8 µM
  relative viability: 0.179
Ruxolitinib + Olaparib; first compound 0.08 µM
  relative viability: 0.749
Ruxolitinib + Olaparib; first compound 0.253 µM
  relative viability: 0.732
Ruxolitinib + Olaparib; first compound 0.8 µM
  relative viability: 0.739
Ruxolitinib + Olaparib; first compound 2.53 µM
  relative viability: 0.67
Ruxolitinib + Olaparib; first compound 8 µM
  relative viability: 0.632

## NCI-H2347
VE-821 + Pemetrexed; first compound 0.08 µM
  relative viability: 0.482
VE-821 + Pemetrexed; first compound 0.253 µM
  relative viability: 0.45
VE-821 + Pemetrexed; first compound 0.8 µM
  relative viability: 0.418
VE-821 + Pemetrexed; first compound 2.53 µM
  relative viability: 0.445
VE-821 + Pemetrexed; first compound 8 µM
  relative viability: 0.526
VE-821 + Vorinostat; first compound 0.08 µM
  relative viability: 0.531
VE-821 + Vorinostat; first compound 0.253 µM
  relative viability: 0.555
VE-821 + Vorinostat; first compound 0.8 µM
  relative viability: 0.465
VE-821 + Vorinostat; first compound 2.53 µM
  relative viability: 0.818
VE-821 + Vorinostat; first compound 8 µM
  relative viability: 0.558
Ruxolitinib + Tozasertib; first compound 0.08 µM
  relative viability: 0.612
Ruxolitinib + Tozasertib; first compound 0.253 µM
  relative viability: 0.561
Ruxolitinib + Tozasertib; first compound 0.8 µM
  relative viability: 0.554
Ruxolitinib + Tozasertib; first compound 2.53 µM
  relative viability: 0.725
Ruxolitinib + Tozasertib; first compound 8 µM
  relative viability: 0.701
Ruxolitinib + Olaparib; first compound 0.08 µM
  relative viability: 0.527
Ruxolitinib + Olaparib; first compound 0.253 µM
  relative viability: 0.627
Ruxolitinib + Olaparib; first compound 0.8 µM
  relative viability: 0.644
Ruxolitinib + Olaparib; first compound 2.53 µM
  relative viability: 0.599
Ruxolitinib + Olaparib; first compound 8 µM
  relative viability: 0.572

## NCI-H1299
Ruxolitinib + Olaparib; first compound 0.08 µM
  relative viability: 0.939
Ruxolitinib + Olaparib; first compound 0.253 µM
  relative viability: 0.998
Ruxolitinib + Olaparib; first compound 0.8 µM
  relative viability: 0.963
Ruxolitinib + Olaparib; first compound 2.53 µM
  relative viability: 0.985
Ruxolitinib + Olaparib; first compound 8 µM
  relative viability: 0.757

## ABC-1
VE-821 + Vorinostat; first compound 0.08 µM
  relative viability: 1.32
VE-821 + Vorinostat; first compound 0.253 µM
  relative viability: 1.06
VE-821 + Vorinostat; first compound 0.8 µM
  relative viability: 1.11
VE-821 + Vorinostat; first compound 2.53 µM
  relative viability: 1.26
VE-821 + Vorinostat; first compound 8 µM
  relative viability: 1.01
Ruxolitinib + Tozasertib; first compound 0.253 µM
  relative viability: 0.222
Ruxolitinib + Tozasertib; first compound 0.8 µM
  relative viability: 0.155
Ruxolitinib + Tozasertib; first compound 2.53 µM
  relative viability: 0.202
Ruxolitinib + Tozasertib; first compound 8 µM
  relative viability: 0.201
Ruxolitinib + Olaparib; first compound 0.253 µM
  relative viability: 0.886
Ruxolitinib + Olaparib; first compound 0.8 µM
  relative viability: 0.892
Ruxolitinib + Olaparib; first compound 2.53 µM
  relative viability: 0.505
Ruxolitinib + Olaparib; first compound 8 µM
  relative viability: 1.02

## NCI-H1703
Ruxolitinib + Olaparib; first compound 0.08 µM
  relative viability: 0.44
Ruxolitinib + Olaparib; first compound 0.253 µM
  relative viability: 0.439
Ruxolitinib + Olaparib; first compound 0.8 µM
  relative viability: 0.55
Ruxolitinib + Olaparib; first compound 2.53 µM
  relative viability: 0.237
Ruxolitinib + Olaparib; first compound 8 µM
  relative viability: 0.315

## NCI-H1792
VE-821 + Pemetrexed; first compound 0.08 µM
  relative viability: 1.19
VE-821 + Pemetrexed; first compound 0.253 µM
  relative viability: 0.59
VE-821 + Pemetrexed; first compound 0.8 µM
  relative viability: 0.865
VE-821 + Pemetrexed; first compound 2.53 µM
  relative viability: 0.996
VE-821 + Pemetrexed; first compound 8 µM
  relative viability: 0.568
Ruxolitinib + Olaparib; first compound 0.08 µM
  relative viability: 0.303
Ruxolitinib + Olaparib; first compound 0.253 µM
  relative viability: 0.44
Ruxolitinib + Olaparib; first compound 0.8 µM
  relative viability: 0.377
Ruxolitinib + Olaparib; first compound 2.53 µM
  relative viability: 0.384
Ruxolitinib + Olaparib; first compound 8 µM
  relative viability: 0.236

## NCI-H727
VE-821 + Vorinostat; first compound 0.08 µM
  relative viability: 1.12
VE-821 + Vorinostat; first compound 0.253 µM
  relative viability: 1.28
VE-821 + Vorinostat; first compound 0.8 µM
  relative viability: 1.16
VE-821 + Vorinostat; first compound 2.53 µM
  relative viability: 1.02
VE-821 + Vorinostat; first compound 8 µM
  relative viability: 1.16
Ruxolitinib + Tozasertib; first compound 0.08 µM
  relative viability: 0.663
Ruxolitinib + Tozasertib; first compound 0.253 µM
  relative viability: 0.818
Ruxolitinib + Tozasertib; first compound 0.8 µM
  relative viability: 0.674
Ruxolitinib + Tozasertib; first compound 2.53 µM
  relative viability: 0.567
Ruxolitinib + Tozasertib; first compound 8 µM
  relative viability: 0.589
Ruxolitinib + Olaparib; first compound 0.08 µM
  relative viability: 0.715
Ruxolitinib + Olaparib; first compound 0.253 µM
  relative viability: 0.8
Ruxolitinib + Olaparib; first compound 0.8 µM
  relative viability: 0.603
Ruxolitinib + Olaparib; first compound 2.53 µM
  relative viability: 0.826
Ruxolitinib + Olaparib; first compound 8 µM
  relative viability: 0.645
